Data: patent publication US8158828B2, “Nuclear receptor binding agents” (priority 2005, dated 2012)
“Also recorded” adds a separate entry of the source.

Experiments:
[1] = tested on: uterus; test: In vivo estrogenic activity, uterine weight; set-up: species or system rat; conditions: female rats; for estrogenic activity in terms of uterine weight: compound alone
Protocol: Rats that were administered the vehicle alone served as controls.

[2] = tested on: TRAP positive multinucleated osteoclasts; test: TRAP positive multinucleated osteoclasts from bone marrow cells; assay type: cell-based, rat; conditions: RANKL and GMCSF, 12 days
Protocol: FIG. 7: Effect of the indicated compounds on TRAP positive multinucleated osteoclasts. Bone marrow cells from rat femur was cultured in Alpha MEM+10% csFBS without phenol red in the presence or absence of 30 ng/ml RANKL and 10 ng/ml GMCSF. The cells were treated for 12 days and were stained for tartarate resistant acid phosphatase activity (TRAP) and multinucleated osteoclasts were counted.
Bone marrow cells isolated from rat femur were cultured in Alpha MEM without phenol red+10% sterile FBS without phenol red in the presence or absence of […] RANKL and 10 ng/ml GMCSF. The cells were treated for 12 days were stained for tartarate resistant acid phosphatase activity (TRAP) positive multinucleated osteoclasts and were counted.

[3] = target: T1, ER-β (Rattus norvegicus, UniProt Q62986); test: ER-β transactivation, ERE-LUC in COS or 293 cells; assay type: cell-based; conditions: COS or 293 cells
T1 construct: expressed in transfected cells; host or cells: COS or 293 cells
T1 sequence (Q62986 whole entry): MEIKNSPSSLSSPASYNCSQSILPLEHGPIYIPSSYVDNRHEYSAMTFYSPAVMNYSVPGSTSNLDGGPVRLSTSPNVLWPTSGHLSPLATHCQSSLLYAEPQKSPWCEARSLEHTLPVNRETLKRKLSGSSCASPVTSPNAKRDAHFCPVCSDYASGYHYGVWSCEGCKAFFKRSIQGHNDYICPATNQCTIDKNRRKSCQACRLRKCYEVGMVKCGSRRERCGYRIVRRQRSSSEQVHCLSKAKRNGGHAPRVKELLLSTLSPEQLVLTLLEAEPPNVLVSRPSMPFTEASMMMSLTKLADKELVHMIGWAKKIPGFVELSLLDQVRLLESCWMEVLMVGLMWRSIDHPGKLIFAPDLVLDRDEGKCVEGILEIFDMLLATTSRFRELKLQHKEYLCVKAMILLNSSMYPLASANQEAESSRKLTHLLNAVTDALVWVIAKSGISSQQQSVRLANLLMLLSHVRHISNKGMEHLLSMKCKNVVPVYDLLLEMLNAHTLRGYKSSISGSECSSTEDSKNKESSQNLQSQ
Protocol: (§1) FIG. 2: Effect of the indicated compounds on ER-β transactivation. COS or 293 cells plated in DME without phenol red+10% csFBS at 90,000 cells per well of a 24 well plate were transfected with 0.25 μg ERE-LUC, 0.02 μg CMV-LUC (Renilla) and 50 ng of ER-β by lipofectamine. Twenty four hours after transfection, the cells were treated as indicated in the figure, harvested 48 hrs after transfection and were assayed for firefly and renilla luciferase.
as §1, with “6:” for “2:”, “and” for “and were”
as §1, with “10:” for “2:”, “DME+10%” for “DME without phenol red+10%”
(§2) All the receptors were cloned from rat tissue into the PCR3.1 vector backbone. […] Cells were harvested 48 hrs after transfection, and assayed for firefly and Renilla luciferase activity.
as §2

[4] = Metabolic stability in human liver microsomes; conditions: 1 μM substrate, 0.5 mg/mL microsomes
Protocol: Each substrate or reference control was dissolved at a concentration of 10 mM in DMSO, from which a 5 μM spiking solution was prepared by dilution in water. Substrates (1 μM) were incubated in the presence of human liver microsomes (Xenotech LLC, Kansas City Mo.) at 0.5 mg/mL fortified with an NADPH regenerating system at 37° C. and pH 7.4. The NADPH regenerating system consisted of glucose-6-phosphate dehydrogenase (1 units/mL) in 0.05M K2HPO4. Duplicate incubations were performed in 96-well polypropylene cluster tubes in a final volume of 250 μL per reaction. At 0, 2, 4, 6, 10, 30, and 60 minutes a stop solution (300 μL acetonitrile) was added to aliquots of the reaction mixture. Precipitated protein was removed by centrifugation (3000 rpm for 15 minutes) and the supernatants were transferred to clean 96-well plates for analysis.
The samples were injected onto a Phenomenex Luna hexylphenyl 50×2 mm i.d. 5 uM, column fitted with a guard column. An isocratic mobile phase consisting of 50% acetonitrile and 0.1% formic acid in water was used at a flow rate of 0.3 mL/min. The protonated molecular ion (M+H)^+ of the analyte was monitored by MDS/Sciex API 4000QTrap triple quadrupole mass spectrometer using electrospray positive mode ionization with a temperature of 500° C. and a spray voltage of 4000V. Total analysis time was 1.5 min per sample.
Metabolic stability was defined as the amount of substrate metabolized by the incubation with hepatic microsomes and expressed as a percentage of the initial amount of substrate (% remaining) based on peak area. Initial substrate concentration for each analyte was 1 μM. The initial peak area of each substrate was determined at time zero and metabolic stability was assessed based on the change in analyte peak area from time 0 min to a single fixed timepoint for each sample (2-60 min, representative timepoints are shown in Table 2 below).

[5] = target: T2, ER-α (Rattus norvegicus, UniProt P06211); test: ER-α transactivation, ERE-LUC in COS or 293 cells; assay type: cell-based; set-up: % estardiol activity, ER-α: dose or concentration left out as unconfirmed
T2 sequence (P06211 1-600): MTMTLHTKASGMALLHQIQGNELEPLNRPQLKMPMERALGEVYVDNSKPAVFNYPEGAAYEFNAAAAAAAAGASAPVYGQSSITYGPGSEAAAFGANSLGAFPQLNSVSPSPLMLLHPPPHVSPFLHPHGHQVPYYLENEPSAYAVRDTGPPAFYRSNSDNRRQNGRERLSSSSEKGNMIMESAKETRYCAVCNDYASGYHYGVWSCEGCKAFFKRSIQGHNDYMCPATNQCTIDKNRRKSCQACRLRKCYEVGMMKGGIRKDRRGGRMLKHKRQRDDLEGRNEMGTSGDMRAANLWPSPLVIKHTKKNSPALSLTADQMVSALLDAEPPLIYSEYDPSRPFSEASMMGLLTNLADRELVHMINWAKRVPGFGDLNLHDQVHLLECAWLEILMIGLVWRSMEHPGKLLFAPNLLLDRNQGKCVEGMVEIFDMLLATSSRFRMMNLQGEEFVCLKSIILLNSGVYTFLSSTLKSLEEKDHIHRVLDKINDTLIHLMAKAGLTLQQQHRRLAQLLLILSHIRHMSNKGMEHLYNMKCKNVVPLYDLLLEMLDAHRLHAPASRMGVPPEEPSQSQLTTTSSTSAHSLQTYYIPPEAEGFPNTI
Protocol: FIG. 1: Effects of the indicated compounds on ER-α transactivation. COS or 293 cells plated in DME without phenol red+10% charcoal stripped fetal bovine serum (csFBS) at 90,000 cells per well of 24 well plates were transfected with 0.25 μg ERE-LUC, 0.02 μg CMV-LUC (Renilla) and 25 ng of ER-α by lipofectamine. Twenty four hours after transfection, the cells were treated as indicated in the figure, harvested 48 hrs after transfection and were assayed for firefly and renilla luciferase.
as §1, with “5:” for “2:”, “ER-α” for “ER-β”, “[…]” for “50”
as §1, with “9:” for “2:”, “ER-α” for “ER-β”, “csFBS” for “csFBS at 90,000 cells”, “25” for “50”
Also 25 ng of ER-α (FIGS. 1, 5, and 9), 50 ng of ER-β (FIGS. 2, 6 and 10) or 12.5 ng of AR (FIG. 3) were introduced by lipofectamine. All the receptors were cloned from rat tissue into the PCR3.1 vector backbone. […] Cells were harvested 48 hrs after transfection, and assayed for firefly and Renilla luciferase activity.
Also 25 ng of ER-α), 50 ng of ER-β or 12.5 ng of AR were introduced by lipofectamine. All the receptors were cloned from rat tissue into the PCR3.1 vector backbone. […] Cells were harvested 48 hrs after transfection, and assayed for firefly and Renilla luciferase activity.

[6] = tested on: pS2 (gene encoding the trefoil peptides) in MCF-7 cells; test: pS2 gene expression in MCF-7 cells (realtime RT-PCR); assay type: cell-based; conditions: 16 hrs
Protocol: MCF-7 cells were plated at 500,000 cells per well of a 6 well plate. RNA was isolated and the message levels of pS2 (gene encoding the trefoil peptides) measured and normalized to 18S ribosomal RNA by realtime polymerase chain reaction (rtPCR).
FIG. 11: Agonistic activity of the indicated compounds in MCF-7 cells. MCF-7 cells were plated at 500,000 cells per well of a 6 well plate. RNA was isolated and the message levels of pS2 gene measured and normalized to 18S ribosomal RNA by realtime rtPCR.
MCF-7 cells were plated at 500,000 cells per well of a 6 well plate. The cells were serum starved for 3 days and then were treated as above for 16 hrs. RNA was isolated and gene expression levels assessed by realtime RT-PCR, following normalization to 18S ribosomal RNA.

[7] = tested on: PC-3 cells; test: Androgen independent prostate cancer cell growth; assay type: cell-based; conditions: for PC-3 growth inhibition, qualitative grading: in vitro, data not shown; for inhibition at 10 µM: Homo sapiens, PC-3, 72 hrs
Protocol: PC-3 cells were plated in RPMI+10% csFBS at 6000 cells per well of a 96 well plate. Medium was changed to RPMI+1% csFBS without phenol red and then treated for 72 hrs with increasing concentrations of SERMs.
The prostate cancer cell line PC-3 was plated in RPMI+10% csFBS at 6000 cells per well of a 96 well plate. Medium was changed to RPMI+1% csFBS without phenol red and cells were treated for 72 hrs with increasing concentrations of SERMs.
PC-3 growth inhibition was determined qualitatively, in vitro, and represented as a grading system based on the ability of the SERMs to inhibit growth. The number −4 is for compounds that induced 100% growth inhibition at 1 uM, −3 for compounds that inhibit growth by about 75-90%, −2 for about 50-70% and −1 for inhibition less than 50% growth.

SMILES: O=C(c1ccc(O)cc1)N(c1ccc(O)cc1)c1ccc(O)cc1 [Compound 3a, 4-hydroxy-N,N-bis-(4-hydroxyphenyl)-benzamide]
- estrogenic activity in terms of uterine weight [1]: exhibited estrogenic activity, in vivo
- osteoclast differentiation / osteoclast activity [2]: suppressed osteoclasts
- ER-β LUC expression, compound alone [3]: most potent in stimulating ER-β
- % Remaining 0 min ([4]; 0 min): 100%
- % Remaining 10 min ([4]; 10 min): 140%
- % Remaining 30 min ([4]; 30 min): 118%
- % Remaining 60 min ([4]; 60 min): 103%
- % estardiol activity, ER-α [5]: 49.5%

SMILES: O=C(c1cccc(O)c1)N(c1ccccc1)c1ccccc1 [Compound 3f, 3-hydroxy-N,N-diphenyl-benzamide]
- pS2 expression [6]: increased pS2 expression levels
- estrogenic activity in terms of uterine weight [1]: exhibited estrogenic activity, in vivo

SMILES: O=S(=O)(c1ccc(O)cc1)N(c1ccccc1)c1ccccc1 [Compound 3l, 4-hydroxy-N,N-diphenyl-phenyl-sulfonamide]
- pS2 expression [6]: increased pS2 expression levels
- estrogenic activity in terms of uterine weight [1]: exhibited no estrogenic, or anti-estrogenic activity in uterus
- PC-3 growth inhibition, qualitative grading [7]: −2 (−2 for about 50-70%)

SMILES: O=C(c1ccccc1)N(c1ccccc1)c1ccc(OCCN2CCCCC2)cc1 [Compound 4b, N-(phenyl)-N-[4-(2-piperidin-1-ylethoxy)-phenyl]-benzamide]
- PC-3 growth inhibition, qualitative grading [7]: −1 (−1 for inhibition less than 50% growth)

SMILES: Cl.O=C(c1ccc(OCCN2CCCCC2)cc1)N(c1ccccc1)c1ccc(O)cc1 [Compound 4e, N-(4-hydroxyphenyl)-N-phenyl-[4-(2-piperidin-1-ylethoxy)]-benzamide hydrochloride]
- estrogenic activity in terms of uterine weight [1]: exhibited no estrogenic, or anti-estrogenic activity in uterus
- PC-3 growth inhibition, qualitative grading [7]: −1 (−1 for inhibition less than 50% growth)

SMILES: O=C(c1ccc(OCCN2CCCCC2)cc1)N(c1ccc(O)cc1)c1ccc(F)cc1 [Compound 4g, N-(4-fluorophenyl)-N-[4-hydroxyphenyl]-[4-(2-piperidin-1-ylethoxy)]-benzamide]
- estrogenic activity in terms of uterine weight [1]: exhibited estrogenic activity, in terms of increased uterine weight; also recorded: exhibited estrogenic activity, in vivo
- uterine weight increase, with ICI-182,780 ([1]; with ICI-182,780): ICI-182,780 reversed 4a and 4g effects on uterine weight increase
- uterine weight, coadministered with estrogen ([1]; with estrogen): an increase in uterine weight was observed

SMILES: Cl.Cl.O=C(c1ccc(OCCN2CCCCC2)cc1)N(c1ccc(F)cc1)c1ccc(OCCN2CCCCC2)cc1 [Compound 4r, N-(4-fluorophenyl)-N-[4-(2-piperidin-1-ylethoxy)-phenyl]-[4-(2-piperidin-1-yl-ethoxy)]-benzamide dihydrochloride]
- inhibition at 10 µM [7]: 100%
- PC-3 growth inhibition, qualitative grading [7]: −4 (The number −4 is for compounds that induced 100% growth inhibition at 1 uM)

SMILES: Cl.Cl.O=C(c1ccc(OCCN2CCCCC2)cc1)N(c1ccccc1)c1ccc(OCCN2CCCCC2)cc1 [Compound 4u, N-[4-(2-piperidin-1-ylethoxy)-phenyl]-N-phenyl-[4-(2-piperidin-1-ylethoxy)]-benzamide dihydrochloride]
- inhibition at 10 µM [7]: 100%
- PC-3 growth inhibition, qualitative grading [7]: −3 (−3 for compounds that inhibit growth by about 75-90%)
- % estardiol activity, ER-α [5]: 12.8%
